ChEMBL document CHEMBL1201862, “PubChem BioAssay data set” (2004)
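Assay format: 96-well plates, 48-hour exposure. GI50 = concentration required for 50% inhibition of growth.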 The source made the active and inactive calls. No stated cut-off is given here; in the data, active = GI50 up to about 1.1 µM and inactive = higher.

Key:
Test in all cases: inhibition of tumour cell growth, NCI panel, 48 h
[1] = test system: MDA-MB-435
[2] = test system: A498
[3] = test system: CCRF-CEM
[4] = test system: HOP-92
[5] = test system: RPMI-8226
[6] = test system: ACHN
[7] = test system: HCT-15
[8] = test system: Malme-3M
[9] = test system: SNB-19
[10] = test system: SF-295
[11] = test system: NCI-H226
[12] = test system: A549
[13] = test system: PC-3
[14] = test system: NCI/ADR-RES
[15] = test system: OVCAR-8
[16] = test system: LOX IMVI
[17] = test system: EKVX
[18] = test system: HCC 2998
[19] = test system: SK-OV-3
[20] = test system: DU-145
[21] = test system: SW-620
[22] = test system: KM12
[23] = test system: UACC-62
[24] = test system: OVCAR-3
[25] = test system: MDA-MB-231
[26] = test system: OVCAR-4
[27] = test system: SR
[28] = test system: Hs-578T
[29] = test system: HOP-62
[30] = test system: M14
[31] = test system: UO-31
[32] = test system: SK-MEL-5
[33] = test system: NCI-H460
[34] = test system: U-251
[35] = test system: NCI-H522
[36] = test system: MDA-N
[37] = test system: TK-10
[38] = test system: MOLT-4
[39] = test system: HCT-116
[40] = test system: COLO 205
[41] = test system: BT-549
[42] = test system: IGROV-1
[43] = test system: SF-268
[44] = test system: HT-29
[45] = test system: HL-60
[46] = test system: CAKI-1
[47] = test system: NCI-H23
[48] = test system: 786-0
[49] = test system: K562
[50] = test system: UACC-257
[51] = test system: SK-MEL-2
[52] = test system: SK-MEL-28
[53] = test system: SF-539
[54] = test system: MCF7
[55] = test system: SN12C
[56] = test system: SNB-75
[57] = test system: OVCAR-5
[58] = test system: T47D
[59] = test system: RXF 393

Measured: GI50

COc1cccc(NC(=O)CC(=O)Nc2cccc(OC)c2)c1
> 100 µM: [7]
inactive: [1] > 100 µM | [2] > 100 µM | [3] > 100 µM | [4] > 100 µM | [5] > 100 µM | [6] > 100 µM | [8] > 100 µM | [9] > 100 µM | [10] > 100 µM | [11] > 100 µM | [12] > 100 µM | [13] > 100 µM | [14] > 100 µM | [15] > 100 µM | [16] > 100 µM | [17] > 100 µM | [18] > 100 µM | [19] > 100 µM | [20] > 100 µM | [21] > 100 µM | [22] > 100 µM | [23] > 100 µM | [24] > 100 µM | [25] > 100 µM | [26] > 100 µM | [27] > 100 µM | [28] > 100 µM | [29] > 100 µM | [30] > 100 µM | [31] > 100 µM | [32] > 100 µM | [33] > 100 µM | [34] > 100 µM | [35] > 100 µM | [36] > 100 µM | [37] > 100 µM | [38] > 100 µM | [39] > 100 µM | [40] > 100 µM | [41] > 100 µM | [42] > 100 µM | [43] > 100 µM | [44] > 100 µM | [45] > 100 µM | [46] > 100 µM | [47] > 100 µM | [48] > 100 µM | [49] > 100 µM | [50] > 100 µM | [51] > 100 µM | [52] > 100 µM | [53] > 100 µM | [54] > 100 µM | [55] > 100 µM

O=C1Nc2ccccc2/C1=N/Nc1nc(-c2ccc(Cl)c(Cl)c2)cs1
inactive: [1] 72.1 µM | [4] > 100 µM | [6] 87.1 µM | [56] 49.3 µM | [9] > 100 µM | [10] > 100 µM | [11] > 100 µM | [12] > 100 µM | [13] 24 µM | [14] > 100 µM | [15] 47.4 µM | [16] > 100 µM | [17] > 100 µM | [18] > 100 µM | [19] > 100 µM | [20] 92 µM | [21] > 100 µM | [22] 29.6 µM | [24] 4.75 µM | [57] > 100 µM | [25] > 100 µM | [26] 77.6 µM | [29] > 100 µM | [30] 78.5 µM | [31] 7.01 µM | [32] 20 µM | [33] 17.6 µM | [34] 77.4 µM | [36] 47 µM | [37] 66.2 µM | [38] 16 µM | [39] 90.6 µM | [58] 26 µM | [40] 29.9 µM | [42] 9.73 µM | [44] 56 µM | [46] 5.69 µM | [47] 46.1 µM | [48] > 100 µM | [50] > 100 µM | [51] 43 µM | [52] > 100 µM | [53] 73.5 µM | [54] 37.2 µM | [55] > 100 µM
active: [45] 0.232 µM
6.24 µM: [7]

CN1C(CC(O)c2ccccc2)CCCC1CC(O)(c1ccccc1)c1ccccc1 (stereo not drawn)
16.5 µM: [7]
inactive: [3] 19.8 µM | [5] 17.1 µM | [6] 19.7 µM | [56] 19.1 µM | [8] 18.2 µM | [9] 17.1 µM | [10] 16.9 µM | [11] 21.1 µM | [12] 22.1 µM | [13] 18.2 µM | [14] 16.9 µM | [15] 20.8 µM | [16] 20.3 µM | [17] 26.4 µM | [18] 22.9 µM | [19] 21.4 µM | [20] 20.8 µM | [21] 19.4 µM | [22] 18.5 µM | [23] 21 µM | [24] 15.6 µM | [57] 15 µM | [25] 22.6 µM | [27] 18.7 µM | [29] 14.3 µM | [30] 16.8 µM | [31] 8.36 µM | [32] 16.6 µM | [34] 15.1 µM | [35] 19.9 µM | [36] 18.5 µM | [37] 18.5 µM | [38] 17.5 µM | [39] 14.9 µM | [58] 21 µM | [40] 16.4 µM | [42] 17.2 µM | [43] 18.7 µM | [44] 12.1 µM | [45] 17.3 µM | [46] 75.2 µM | [47] 16.7 µM | [48] 15.7 µM | [49] 29 µM | [50] 17.6 µM | [52] 16 µM | [59] 14.9 µM | [53] 13.6 µM | [54] 20.9 µM | [55] 17.8 µM

C/C=C\C(CC(=O)O)CC(=O)NCCC1CN(S(=O)(=O)C(F)(F)F)c2ccccc21 (stereo not drawn)
> 100 µM: [7]
inactive: [1] > 100 µM | [2] > 100 µM | [3] > 100 µM | [4] > 100 µM | [5] > 100 µM | [6] > 100 µM | [56] > 100 µM | [8] > 100 µM | [9] > 100 µM | [10] > 100 µM | [12] > 100 µM | [13] > 100 µM | [14] > 100 µM | [15] > 100 µM | [16] > 100 µM | [17] > 100 µM | [18] > 100 µM | [19] > 100 µM | [20] > 100 µM | [21] > 100 µM | [22] > 100 µM | [23] > 100 µM | [24] > 100 µM | [57] > 100 µM | [25] > 100 µM | [26] > 100 µM | [27] > 100 µM | [28] > 100 µM | [29] > 100 µM | [30] > 100 µM | [31] > 100 µM | [32] > 100 µM | [33] > 100 µM | [34] > 100 µM | [35] > 100 µM | [36] > 100 µM | [38] > 100 µM | [39] > 100 µM | [40] > 100 µM | [41] > 100 µM | [42] > 100 µM | [43] > 100 µM | [44] > 100 µM | [46] > 100 µM | [47] > 100 µM | [48] > 100 µM | [49] > 100 µM | [50] > 100 µM | [51] > 100 µM | [52] > 100 µM | [59] > 100 µM | [54] > 100 µM

O=C1OC(c2ccccc2)=N/C1=C\c1cccnc1
inactive: [1] > 100 µM | [3] 29.2 µM | [4] > 100 µM | [5] 48.3 µM | [6] > 100 µM | [56] > 100 µM | [9] > 100 µM | [10] > 100 µM | [11] > 100 µM | [12] > 100 µM | [13] > 100 µM | [14] > 100 µM | [15] > 100 µM | [17] > 100 µM | [18] > 100 µM | [19] > 100 µM | [21] > 100 µM | [22] > 100 µM | [23] > 100 µM | [24] > 100 µM | [57] > 100 µM | [26] > 100 µM | [27] 33 µM | [28] > 100 µM | [29] > 100 µM | [30] > 100 µM | [31] > 100 µM | [32] > 100 µM | [33] > 100 µM | [34] > 100 µM | [35] > 100 µM | [37] > 100 µM | [38] 2.84 µM | [41] 59.8 µM | [42] > 100 µM | [43] > 100 µM | [44] > 100 µM | [45] 20.7 µM | [47] > 100 µM | [49] 34.8 µM | [50] > 100 µM | [51] > 100 µM | [52] > 100 µM | [59] > 100 µM | [53] > 100 µM | [54] > 100 µM
> 100 µM: [7]
